This passage reports EC50 results from patent publication US9475775B2, “Benzazepine dicarboxamide compounds” (Hoffmann-La Roche Inc., priority 2015, dated 2016).

Each structure is given as a SMILES string. pEC50: −log10 of the molar value.

One may read the pEC50 as the negative decadic logarithm of the EC50, by convention in mol/L. A low value points to a large EC50.

In one experiment the target is human TLR8 (Homo sapiens (Human), UniProt Q9NR97). Kind of experiment: HEK-Blue human TLR8 cells, NF-κB SEAP reporter assay. It is filed as cell-based. The settings on record: stimulation for 20 hours. In a few lines:
(§1)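 HEK-Blue cells carrying human TLR7 or TLR8 with an NF-κB/AP-1-driven SEAP reporter, stimulated 20 hours. Supernatant SEAP measured with Quanti Blue at 640 nm; EC50 derived from concentration-response.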

The next experiment deals with human TLR7 (Homo sapiens (Human), UniProt Q9NYK1). Description: HEK-Blue human TLR7 cells, NF-κB SEAP reporter assay. Format: cell-based. The settings on record: stimulation for 20 hours. The method, boiled down: as §1
human TLR7, sequence (Q9NYK1 27-1049): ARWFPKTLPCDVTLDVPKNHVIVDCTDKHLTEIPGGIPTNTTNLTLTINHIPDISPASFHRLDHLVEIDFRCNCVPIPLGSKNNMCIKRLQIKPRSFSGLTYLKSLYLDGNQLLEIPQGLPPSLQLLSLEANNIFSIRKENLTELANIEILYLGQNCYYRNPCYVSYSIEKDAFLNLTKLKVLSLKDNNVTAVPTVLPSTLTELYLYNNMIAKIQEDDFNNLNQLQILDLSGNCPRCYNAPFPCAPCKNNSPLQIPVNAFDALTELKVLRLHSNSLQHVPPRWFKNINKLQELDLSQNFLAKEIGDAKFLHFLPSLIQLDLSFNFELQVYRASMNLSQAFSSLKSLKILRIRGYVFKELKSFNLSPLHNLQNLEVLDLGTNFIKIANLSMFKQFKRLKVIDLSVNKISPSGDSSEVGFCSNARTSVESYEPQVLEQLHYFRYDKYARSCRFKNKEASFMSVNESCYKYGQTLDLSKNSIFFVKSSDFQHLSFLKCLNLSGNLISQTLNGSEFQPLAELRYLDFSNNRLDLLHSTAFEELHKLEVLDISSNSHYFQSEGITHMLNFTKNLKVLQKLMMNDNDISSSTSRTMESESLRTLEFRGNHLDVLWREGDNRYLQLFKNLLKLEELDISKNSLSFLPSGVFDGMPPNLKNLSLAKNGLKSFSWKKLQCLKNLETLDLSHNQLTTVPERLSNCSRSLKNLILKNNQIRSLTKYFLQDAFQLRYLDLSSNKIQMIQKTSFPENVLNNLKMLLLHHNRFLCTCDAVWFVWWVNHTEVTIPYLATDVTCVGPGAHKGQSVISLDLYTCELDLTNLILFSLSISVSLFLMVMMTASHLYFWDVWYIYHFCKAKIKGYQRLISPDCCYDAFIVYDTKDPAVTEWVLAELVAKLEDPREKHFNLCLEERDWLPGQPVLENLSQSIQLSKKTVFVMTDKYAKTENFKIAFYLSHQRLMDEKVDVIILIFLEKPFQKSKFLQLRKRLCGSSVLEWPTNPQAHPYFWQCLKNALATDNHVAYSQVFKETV
A general note: Reporter assays use an easily measured gene product as a stand-in for the process of interest.

human TLR8, sequence (Q9NR97 27-1041): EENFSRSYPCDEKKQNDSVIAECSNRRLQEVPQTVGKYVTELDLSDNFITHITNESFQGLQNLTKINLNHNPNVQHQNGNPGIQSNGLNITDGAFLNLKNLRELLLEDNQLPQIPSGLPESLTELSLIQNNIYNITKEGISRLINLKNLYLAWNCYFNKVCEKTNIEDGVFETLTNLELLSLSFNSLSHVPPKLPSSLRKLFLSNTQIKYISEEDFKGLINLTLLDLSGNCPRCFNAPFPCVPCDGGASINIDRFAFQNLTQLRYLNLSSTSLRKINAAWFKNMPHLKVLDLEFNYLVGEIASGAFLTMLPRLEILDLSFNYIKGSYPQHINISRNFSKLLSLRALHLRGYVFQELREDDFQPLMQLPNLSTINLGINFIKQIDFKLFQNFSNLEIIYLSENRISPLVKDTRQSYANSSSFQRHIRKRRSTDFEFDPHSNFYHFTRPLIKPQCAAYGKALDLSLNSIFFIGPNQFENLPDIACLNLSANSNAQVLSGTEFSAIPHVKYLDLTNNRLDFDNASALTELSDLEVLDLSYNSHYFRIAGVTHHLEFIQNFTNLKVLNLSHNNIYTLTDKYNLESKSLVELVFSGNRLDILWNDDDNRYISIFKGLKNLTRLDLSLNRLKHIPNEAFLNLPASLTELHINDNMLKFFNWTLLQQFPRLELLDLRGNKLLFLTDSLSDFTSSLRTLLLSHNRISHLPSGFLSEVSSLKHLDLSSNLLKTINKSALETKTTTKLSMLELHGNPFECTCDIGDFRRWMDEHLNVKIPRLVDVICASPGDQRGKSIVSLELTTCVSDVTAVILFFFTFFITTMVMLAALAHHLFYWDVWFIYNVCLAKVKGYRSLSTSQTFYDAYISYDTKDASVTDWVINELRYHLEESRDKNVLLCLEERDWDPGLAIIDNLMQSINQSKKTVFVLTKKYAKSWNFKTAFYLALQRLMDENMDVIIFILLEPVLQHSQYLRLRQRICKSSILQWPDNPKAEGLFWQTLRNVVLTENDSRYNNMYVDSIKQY

As to `CCCN(CCC)C(=O)C1=Cc2ccc(C(=O)Nc3ccc(CCCCCN)cc3)cc2N=C(N)C1` [Example 58, 2-Amino-N8-[4-(5-aminopentyl)phenyl]-N4,N4-dipropyl-3H-1-benzazepine-4,8-dicarboxamide], the pEC50 at human TLR8 is 7.82; at human TLR7, less than 4.00.

As for `CCCN(CCC)C(=O)C1=Cc2ccc(C(=O)Nc3cccc(CCCN)c3)cc2N=C(N)C1` [Example 59, 2-Amino-N8-[3-(3-aminopropyl)phenyl]-N4,N4-dipropyl-3H-1-benzazepine-4,8-dicarboxamide], the pEC50 is 8.52 at human TLR8 and less than 4.00 at human TLR7.

In the case of `CCCN(Cc1ccc(CN)cc1)C(=O)C1=Cc2ccc(C(=O)Nc3cccc(C)c3)cc2N=C(N)C1` [Example 60, 2-Amino-N4-[[4-(aminomethyl)phenyl]methyl]-N8-(m-tolyl)-N4-propyl-3H-1-benzazepine-4,8-dicarboxamide], the pEC50 at human TLR8 is 7.57; on human TLR7 it was less than 4.00.

For the molecule `CCCN(CCC)C(=O)C1=Cc2ccc(C(=O)Nc3ccc(CCCN)cc3)cc2N=C(N)C1` [Example 61, 2-Amino-N8-[4-(3-aminopropyl)phenyl]-N4,N4-dipropyl-3H-1-benzazepine-4,8-dicarboxamide], the values for the pEC50 at human TLR8 and at human TLR7 were 8.30 and less than 4.00, respectively.

Turning to `CCCN(CCC)C(=O)C1=Cc2ccc(C(=O)Nc3cccc(CCCCN)c3)cc2N=C(N)C1` [Example 62], the pEC50 was 8.15 on human TLR8 and less than 4.00 on human TLR7.

In the case of `CCCN(CCC)C(=O)C1=Cc2ccc(C(=O)Nc3ccc(F)c(CCN)c3)cc2N=C(N)C1` [Example 63, 2-Amino-N8-[3-(2-aminoethyl)-4-fluoro-phenyl]-N4,N4-dipropyl-3H-1-benzazepine-4,8-dicarboxamide], the pEC50 on human TLR8 was 7.96; on human TLR7 it was less than 4.00.

For `CCCN(CCC)C(=O)C1=Cc2ccc(C(=O)Nc3cc(Cl)cc(CCN)c3)cc2N=C(N)C1` [Example 64, 2-Amino-N8-[3-(2-aminoethyl)-5-chloro-phenyl]-N4,N4-dipropyl-3H-1-benzazepine-4,8-dicarboxamide], the pEC50 at human TLR8 is 7.54; at human TLR7, less than 4.00.

With `CCCCN(CCO)C(=O)C1=Cc2ccc(C(=O)Nc3cccc(C)c3)cc2N=C(N)C1` [Example 65, 2-Amino-N4-butyl-N4-(2-hydroxyethyl)-N8-(m-tolyl)-3H-1-benzazepine-4,8-dicarboxamide], the pEC50 is 8.22 on human TLR8 and less than 4.00 at human TLR7.

In the case of `CCCN(CCC)C(=O)C1=Cc2ccc(C(=O)Nc3cncc(OCCN)c3)cc2N=C(N)C1` [Example 66, 2-Amino-N8-[5-(2-aminoethoxy)-3-pyridyl]-N4,N4-dipropyl-3H-1-benzazepine-4,8-dicarboxamide], the pEC50 is 7.51 on human TLR8 and less than 4.00 at human TLR7.

In the case of `CCCN(CCC)C(=O)C1=Cc2ccc(C(=O)Nc3cncc(CNC(=O)OCc4ccccc4)c3)cc2N=C(N)C1` [Example 67, Benzyl N-[[5-[[2-amino-4-(dipropylcarbamoyl)-3H-1-benzazepine-8-carbonyl]amino]-3-pyridyl]methyl]carbamate], the figures for the pEC50 at human TLR8 and at human TLR7 were 8.40 and less than 4.00, respectively.

Regarding `CCCN(CCC)C(=O)C1=Cc2ccc(C(=O)Nc3cncc(/C=C/CN)c3)cc2N=C(N)C1` [Example 68, 2-Amino-N8-[5-[(E)-3-aminoprop-1-enyl]-3-pyridyl]-N4,N4-dipropyl-3H-1-benzazepine-4,8-dicarboxamide], the pEC50 is 8.10 at human TLR8 and less than 4.00 on human TLR7.

For `CCCN(CCC)C(=O)C1=Cc2ccc(C(=O)Nc3cncc(CCc4ccccc4)c3)cc2N=C(N)C1` [Example 69, 2-Amino-N8-[5-(2-phenylethyl)-3-pyridyl]-N4,N4-dipropyl-3H-1-benzazepine-4,8-dicarboxamide], the pEC50 on human TLR8 is 8.10; at human TLR7 it was less than 4.00.

Regarding `CCCN(CCC)C(=O)C1=Cc2ccc(C(=O)Nc3cncc(CCc4ccc(OC)cc4)c3)cc2N=C(N)C1` [Example 70, 2-Amino-N8-[5-[2-(4-methoxyphenyl)ethyl]-3-pyridyl]-N4,N4-dipropyl-3H-1-benzazepine-4,8-dicarboxamide], the figures for the pEC50 on human TLR8 and on human TLR7 were 7.92 and less than 4.00, respectively.

Turning to `CCCN(CCC)C(=O)C1=Cc2ccc(C(=O)Nc3cncc(CCc4ccc(CN)cc4)c3)cc2N=C(N)C1` [Example 71, 2-Amino-N8-[5-[2-[4-(aminomethyl)phenyl]ethyl]-3-pyridyl]-N4,N4-dipropyl-3H-1-benzazepine-4,8-dicarboxamide], the pEC50 is 7.54 on human TLR8 and less than 4.00 on human TLR7.

Consider `CCCN(CCC)C(=O)C1=Cc2ccc(C(=O)Nc3cncc(CCCCCN)c3)cc2N=C(N)C1` [Example 72, 2-Amino-N8-[5-(5-aminopentyl)-3-pyridyl]-N4,N4-dipropyl-3H-1-benzazepine-4,8-dicarboxamide], for which the pEC50 is 7.60 at human TLR8 and less than 4.00 on human TLR7.

Consider `CCCN(CCC)C(=O)C1=Cc2ccc(C(=O)Nc3cncc(CCc4cccc(OC)c4)c3)cc2N=C(N)C1` [Example 73, 2-Amino-N8-[5-[2-(3-methoxyphenyl)ethyl]-3-pyridyl]-N4,N4-dipropyl-3H-1-benzazepine-4,8-dicarboxamide], for which the pEC50 on human TLR8 is 8.00; at human TLR7, less than 4.00.

Consider `CCCN(CCC)C(=O)C1=Cc2ccc(C(=O)Nc3cncc(CCCCCCN)c3)cc2N=C(N)C1` [Example 74, 2-Amino-N8-[5-(6-aminohexyl)-3-pyridyl]-N4,N4-dipropyl-3H-1-benzazepine-4,8-dicarboxamide], for which the pEC50 is 7.57 on human TLR8 and less than 4.00 at human TLR7.

Consider `CCCN(CCC)C(=O)C1=Cc2ccc(C(=O)Nc3ccc(CCCN)nc3)cc2N=C(N)C1` [Example 75, 2-Amino-N8-[6-(3-aminopropyl)-3-pyridyl]-N4,N4-dipropyl-3H-1-benzazepine-4,8-dicarboxamide], for which the pEC50 on human TLR8 is 8.00; on human TLR7 it was less than 4.00.

As to `CCCN(CCC)C(=O)C1=Cc2ccc(C(=O)Nc3cncc(CCCCN)c3)cc2N=C(N)C1` [Example 76, 2-Amino-N8-[5-(4-aminobutyl)-3-pyridyl]-N4,N4-dipropyl-3H-1-benzazepine-4,8-dicarboxamide], the pEC50 was 7.62 at human TLR8 and less than 4.00 on human TLR7.

In the case of `CCCN(CCC)C(=O)C1=Cc2ccc(C(=O)Nc3ccc(CCCCN)nc3)cc2N=C(N)C1` [Example 77, 2-Amino-N8-[6-(4-aminobutyl)-3-pyridyl]-N4,N4-dipropyl-3H-1-benzazepine-4,8-dicarboxamide], the values for the pEC50 on human TLR8 and on human TLR7 were 8.10 and less than 4.00, respectively.

Consider `CCCN(CCC)C(=O)C1=Cc2ccc(C(=O)Nc3cncc(CN(C)C)c3)cc2N=C(N)C1` [Example 78, 2-Amino-N8-[5-[(dimethylamino)methyl]-3-pyridyl]-N4,N4-dipropyl-3H-1-benzazepine-4,8-dicarboxamide], for which the pEC50 is 7.92 on human TLR8 and less than 4.00 at human TLR7.

Regarding `CCCN(CC1CC1)C(=O)C1=Cc2ccc(C(=O)Nc3cncc(OCC)c3)cc2N=C(N)C1` [Example 79, 2-Amino-N4-(cyclopropylmethyl)-N8-(5-ethoxy-3-pyridyl)-N4-propyl-3H-1-benzazepine-4,8-dicarboxamide], the figures for the pEC50 on human TLR8 and at human TLR7 were 8.70 and 4.51, respectively.

For the molecule `CCCN(CCC)C(=O)C1=Cc2ccc(C(=O)Nc3cncc(CCN)c3)cc2N=C(N)C1` [Example 80, 2-Amino-N8-[5-(2-aminoethyl)-3-pyridyl]-N4,N4-dipropyl-3H-1-benzazepine-4,8-dicarboxamide], the values for the pEC50 at human TLR8 and on human TLR7 were 7.77 and less than 4.00, respectively.
